Laboratory results reported in patent US7563771B2, “Synthetic single domain polypeptides mimicking apolipoprotein E” (UAB Research Foundation, priority 2002, dated 2009).
Peptide text beside a SMILES is read from it.

Experiments:
plasma cholesterol [1] = experiment: Plasma cholesterol after intravenous injection into fasted apo E null mice; format: in vivo
Procedure: The peptides were dissolved in PBS pH=5.0. Control mice (n=5) received PBS pH=5.0. Data shown represent mean±SEM.
Effects on cholesterol levels of peptide Ac-(R)14L-NH2 analog 2 (at 100 μg/mouse), administered intravenously into fasted apo E null mice as free peptide or as peptide:DMPC complexes at two pH levels. n=5 in all cases is shown in FIG. 11. Peptides were dissolved in PBS at the pH shown. Data shown represent mean±SEM.
Blood samples were taken immediately before injection and at 2 minutes and at 5 hours after injection and measured for cholesterol. A control of only PBS was also measured. Total cholesterol in the blood samples was measured, and is expressed in FIG. 4 as mean±SEM. […] However, the reduction in plasma cholesterol was in the lipoproteins, including HDL. […] Feces were collected for 24 hours following injection of 100 μg of Ac-(R)18L-NH2:DMPC complexes (n=2) or PBS (n=5). Fecal sterols were extracted, and total cholesterol was determined manually (Sigma Infinity). […] Total feces were collected from individually-caged mice for 24 hours following intravenous injection of Ac-(R)18L-NH2 into apo E null mice at a dose of 100 μg/mouse. Total 24-hour fecal cholesterol was then calculated. Feces from each mouse were weighed, lyophilized, and then re-weighed. 100 mg dried feces was then homogenized, and total lipids were extracted. The dried extract was resuspended in isopropanol, and cholesterol was measured manually. Data shown in FIG. 6 are mean±SEM for control and mean±range for peptide.
This experiment is carried out to show the usefulness of the peptides of the invention in vivo for lowering serum cholesterol. Peptide or peptide-lipid complexes were administered intravenously to mice. After some time period (as specifically shown in various figures), plasma samples were obtained by performing a retro-orbital bleed of the animals. The samples were analyzed by the column lipoprotein profile as previously described (Garber, D. et al. J. Lipid Res. 2000, 41:1020-1026). Briefly, 5 to 10 μl of the plasma was analyzed using a single superose (Pharmacia, Piscataway, N.J.) column. Immediately following the column run, cholesterol reagent is introduced through a mixing tee, and the eluent:reagent mixture enters a post column reaction coil. Cholesterol content of the reaction mixture is determined at 500 nm spectrophotometrically and the data points are collected into a computer. The resulting profiles are decomposed into component peaks and analyzed for relative area using PeakFit® computer software (SPSS Science, Chicago, Ill.). Absolute cholesterol value for total cholesterol is determined by comparisons with control samples of known values. The results would show a decrease in serum cholesterol in the subjects that received the polypeptides of the invention.

[2] = Toxicity of intravenously administered peptide to mice; format: in vivo; settings: 100 μg/mouse; for toxicity to mice, in words: intravenously
erythrocytes = experiment: Hemolysis of erythrocytes (hemoglobin content of supernatant, absorbance at 540 nm); format: cell-based
Procedure: This example was performed to test the affect of amino acid residue changes on the lytic nature of peptides of the invention. Lysine residues, which resided on the polar face of the single domain peptide, were substituted with arginine and such altered peptides were tested for lytic ability. Similarly, in other peptides of the invention, lysine residues on the polar face of the single domain peptide of the invention were dimethylated. These altered peptides neutralized the hemolytic property of the 18 L peptide. A suspension of erythrocytes (10^6 cells/ml) in phosphate-buffered saline with and without peptide (10 ml of […] peptide solution) was incubated for 10 min at 37° C. Hemolysis was expressed as hemoglobin content (absorbance at 540 nm) of the supernatant after centrifugation at 16,000×g for 3 min. Hemoglobin content as measured in the presence of 0.1% Triton X-100 was taken as 100% hemolysis.

plasma cholesterol [3] = experiment: Plasma cholesterol in dyslipidemic mouse models; format: in vivo; settings: several dyslipidemic mouse models, dose-dependent manner
Procedure: These studies were carried out to assess the bioactivity of the single domain R-18L peptides in vivo and compare its activity with the known activity of a dual domain Apo-E derived peptide. In this case, the bioactivity refers to the activity of lowering serum cholesterol in a subject (e.g., in a transgenic mouse). In this example, the 18L peptide analogs were administered to dyslipidemic mice.

LDL from LDL-R null mice = experiment: Association of 125I-labelled peptide with plasma lipoproteins (CLiP profile, radioactivity of fractions); format: binding, LDL-R null mouse
Procedure: Peptide [^125I]Ac-(R)18L-NH2 was mixed with plasma from an LDL-R null mouse at a proportion of 100 μg peptide:1 mL plasma. The plasma lipoprotein profile was determined using the CLiP method (Garber and Anantharamaiah, J. Lipid. Res., 2000), and fractions were collected for measurement of radioactivity. Thus, peptide:lipid complexes are good candidates for administration that would result in enhanced uptake of atherogenic lipoproteins. The effect of the single domain peptide of the invention should last longer than any dual domain peptide since lipid-associated peptide is helical and the backbone is not accessible for proteolytic cleavage (degradation). Thus, several slow-release formulations of peptides with lipids are tested to determine the optimal formulation for delivery.

HepG2 cells = experiment: Uptake of 125I-LDL and 125I-VLDL by HepG2 cells in presence of peptide; format: cell-based
Procedure: These experiments were performed to test the bioactivity of the R-18L peptide in cell culture. […] Specifically, ^125I-LDL and ^125I-VLDL and the R-18L peptide were incubated with HepG2 cells in vitro for 2 hours to determine the cellular uptake of the iodinated compounds. […] H/H represent uptake of the lipoproteins in cells treated with heparinase/heparitinase. […] In case of VLDL, the peptide-mediated uptake appeared to be predominantly via an HSPG pathway. […] Examples of atherogenic lipoproteins are VLDL and LDL.
This experiment was carried out to follow the events subsequent to the binding of atherogenic lipoproteins to cultured cells. HepG2 cells (obtained from American Type Culture Collection (ATCC), Manassas, Va.) are used for determining peptide-mediated enhanced uptake of LDL or VLDL. Cells are grown in DMEM in six-well plates and used at 75% to 90% confluence. The seeding density of the cells that is used is 1.5-3.0×10^5 cells/ml. Cells are treated with DMEM containing lipoprotein-deficient serum (LPDS) 24 h prior to use to upregulate […] with the indicated concentration (0 to 50 μg of ^125I-LDL) at 4° C. for 2 h in presence or absence of peptides. Nonspecific binding is assessed in the presence of 50-fold excess of unlabelled LDL with or without peptides. After washing with ice-cold PBS, (containing 2 mg/ml BSA) to remove excess labeled lipoproteins, cells are incubated with excess dextran sulfate (4 mg/ml Pharmacia, Mr of 500,000) or heparin (Sigma Chemical Co., St. Louis, Mo., 10 mg/ml) for 1 h to release specifically bound ^125I-LDL. The counts in the dextran sulfate wash reflect the amount of LDL bound to cells. Cells are then washed with PBS and then dissolved in 0.1 N NaOH and a 0.5 ml aliquot of the cells suspension is counted. The counts reflect the amount of LDL internalized. The amount of protein is estimated using the Lowry method. Degradation of LDL is assessed by precipitating ^125I-LDL using 17% […] acid and incubating at 4° C. for 30 min. The precipitate is removed by centrifugation. The supernatant is treated with 10 μl of 40% KI and 40 μl of 10% hydrogen peroxide. The free ^125I is extracted with 2 ml chloroform. The upper aqueous layer is then counted for radioactivity. These counts represent the amount of monoiodi-tyrosine produced by the degradation of apo B in lipoproteins. Cell surface HSPG is removed by treating cells with heparinase and heparitinase (Sigma Chemical Co., St. Louis, Mo.) at a concentration of 3 u/ml of medium for 2 h at 37° C. In all cell experiments an average value of triplicate experiments are considered. Counts are detected inside the cultured cells and it is shown that LDL and VLDL are bound, internalized and degraded in the cultured cells in the presence of the peptide of the invention.

[4] = Solubility of peptide and peptide:DMPC complexes

## GIRRFYGSIWRFIR (Ac-GIRRFYGSIWRFIR-NH2) [Ac-(R)14L-NH2 analog 1]
Plasma cholesterol [1]; free peptide, 100 μg/mouse, i.v., PBS pH=5, fasting apo E null mice (FIG. 10)
  reducing plasma cholesterol: not effective

## GIKKFLGSIWKFIKAFVG [18L, reference compound]
[2]
  mice that died: four out of six
  toxicity to mice, in words: highly toxic
erythrocytes
  hemolysis (lytic): 80%
  hemolysis / cell lysis, in words: caused marked hemolysis

## Ac-GIRRFLGSIWRFIRAFYG-NH2 [R-18L]
Plasma cholesterol [3]
  reducing plasma cholesterol: effective in reducing plasma cholesterol
Plasma cholesterol [1]; 50 μg of peptide per mouse, i.v., 5 hours, limited to VLDL and IDL/LDL fractions (FIG. 5)
  cholesterol reduction, dose dependency: substantial reduction
Plasma cholesterol [1]; 50 μg/mouse, i.v., PBS pH=5.0, fasting apo E null mice (FIG. 10)
  reducing plasma cholesterol: effective in reducing plasma cholesterol
Plasma cholesterol [1]; 100 μg/mouse i.v. (FIG. 4)
  duration of plasma cholesterol reduction: maintained for at least five hours
Plasma cholesterol [1]; 100 μg/mouse i.v., within two minutes, versus basal level (FIG. 4)
  reduction of plasma cholesterol: approximately 90%
Plasma cholesterol [1]; apo E(−) mice
  lowering plasma cholesterol in apo E(−) mice compared with dual domain peptide: more effectively than the dual domain peptide
LDL from LDL-R null mice; FIG. 7, elution volume c. 12 mL
  counts per minute in VLDL peak: ~50 CPM
LDL from LDL-R null mice; FIG. 7, elution volume c. 16 mL
  counts per minute in LDL peak: ~150 CPM
LDL from LDL-R null mice; FIG. 7, elution volume c. 18 mL
  counts per minute in HDL peak: ~350 CPM
[2]
  toxicity to mice, in words: completely normal
HepG2 cells; 125I-LDL, 2 hours incubation
  uptake of LDL by HepG2 cells: effective in enhancing the uptake
HepG2 cells; 125I-VLDL, 2 hours incubation
  uptake of VLDL by HepG2 cells: effective in enhancing the uptake
HepG2 cells; HepG2 cells, H/H treated
  enhanced uptake of VLDL in cells treated with heparinase/heparitinase (H/H): completely abrogated
  uptake of LDL in cells treated with heparinase/heparitinase (H/H): significant enhancement of uptake

## CC[C@H](C)[C@H](NC(=O)[C@H](Cc1ccccc1)NC(=O)[C@H](CCCNC(=N)N)NC(=O)[C@H](Cc1c[nH]c2ccccc12)NC(=O)[C@@H](NC(=O)[C@H](CO)NC(=O)CNC(=O)[C@H](Cc1ccc(O)cc1)NC(=O)[C@H](Cc1ccccc1)NC(=O)[C@H](CCCNC(=N)N)NC(=O)[C@H](CCCNC(=N)N)NC(C)=O)[C@@H](C)CC)C(=O)N[C@@H](CCCNC(=N)N)C(=O)N[C@@H](C)C(=O)N[C@@H](Cc1ccccc1)C(N)=O [Ac-(R)14L-NH2 analog 2] (Ac-RRFYGSIWRFIRAF-NH2)
[4]; pH=5.0
  solubility: freely soluble
[4]; pH=7.4
  solubility: only partially soluble
[4]; pH=7.4, addition of DMPC at a 1:1 ratio (w/w)
  effect of DMPC on the suspension: completely clarified this suspension
